{
  "source": "patent US20180271873A1",
  "about": "“METHODS FOR TREATING VIRAL INFECTIONS” (priority 2015, published 2018)",
  "data": [
    {"tested_on": "GFP-expressing Zaire Ebolavirus Mayinga-GFP", "assay": "microbe, parasite or virus in culture", "format": "cell-based", "settings": "HeLa, read-out: Activity (Biological activity, EC50)", "units": {"EC50": "nM"}, "values": [
      {"compound": "Cc1cccc(/C=N/Nc2cc(N3CCS(=O)(=O)CC3)nc(OCCc3ccccn3)n2)c1", "note": "[Compound 16]", "EC50": "> 50000"},
      {"compound": "COc1c(N/N=C/c2cccc(C)c2)nc(OCCc2ccccn2)nc1N1CCOCC1", "note": "[Compound 31, (E)-4-(5-Methoxy-6-(2-(3-methylbenzylidene)hydrazinyl)-2-(2-(pyridin-2-yl)ethoxy)pyrimidin-4-yl)morpholine]", "EC50": "1000 to 50000"},
      {"compound": "Cc1cccc(/C=N/Nc2cc(N3CCOCC3)nc(Oc3ccc4nc(Cl)ccc4c3)n2)c1", "note": "[Compound 55, (E)-4-(2-(2-Chloroquinolin-6-yloxy)-6-(2-(3-methylbenzylidene)hydrazinyl)pyrimidin-4-yl)morpholine]", "EC50": "< 1000"},
      {"compound": "Cc1cccc(/C=N/Nc2cc(N3CCCCC3)nc(OCCc3ccccn3)n2)c1", "note": "[Compound 21, (E)-4-(2-(3-Methylbenzylidene)hydrazinyl)-6-(piperidin-1-yl)-2-(2-(pyridin-2-yl)ethoxy)pyrimidine]", "EC50": "> 50000"},
      {"compound": "Cc1cccc(/C=N/Nc2cc(N3CCOCC3)nc(OCCc3cnccn3)n2)c1", "note": "[Compound 44, (E)-4-(6-(2-(3-Methylbenzylidene)hydrazinyl)-2-(2-(pyrazin-2-yl)ethoxy)pyrimidin-4-yl)morpholine]", "EC50": "1000 to 50000"},
      {"compound": "Cc1cccc(/C=N/Nc2cc(N3CC(C)OC(C)C3)nc(OCCc3ccccn3)n2)c1", "note": "(stereo not shown) [Compound 22, (E)-2,6-Dimethyl-4-(6-(2-(3-methylbenzylidene)hydrazinyl)-2-(2-(pyridin-2-yl)ethoxy)pyrimidin-4-yl)morpholine]", "EC50": "1000 to 50000"},
      {"compound": "Cc1cccc(/C=N/N(C)c2cc(N3CCOCC3)nc(OCCc3ccccn3)n2)c1", "note": "[Compound 37, (E)-4-(6-(1-Methyl-2-(3-methylbenzylidene)hydrazinyl)-2-(2-(pyridin-2-yl)ethoxy)pyrimidin-4-yl)morpholine]", "EC50": "1000 to 50000"},
      {"compound": "Cc1cccc(/C=N/Nc2cc(N3CCOCC3)nc(Oc3ccc4ncc(F)cc4c3)n2)c1", "note": "[Compound 67, (E)-4-(2-(3-Fluoroquinolin-6-yloxy)-6-(2-(3-methylbenzylidene)hydrazinyl)pyrimidin-4-yl)morpholine]", "EC50": "< 1000"},
      {"compound": "Cc1cccc(/C=N/Nc2cc(N3CCOCC3)nc(NCc3ccccn3)n2)c1", "note": "[Compound 18, (E)-4-(2-(3-Methylbenzylidene)hydrazinyl)-6-morpholino-N-(pyridin-2-ylmethyl)pyrimidin-2-amine]", "EC50": "< 1000"},
      {"compound": "Cc1cccc(/C=N/Nc2cc(N3CCOCC3)nc(OCCc3ccc(N)nc3)n2)c1", "note": "[Compound 43, (E)-5-(2-(4-(2-(3-Methylbenzylidene)hydrazinyl)-6-morpholinopyrimidin-2-yloxy)ethyl)pyridin-2-amine]", "EC50": "> 50000"},
      {"compound": "Cc1cccc(/C=N/Nc2cc(N3CCOCC3)nc(Oc3ccc4ccccc4c3)n2)c1", "note": "[Compound 53, (E)-4-(6-(2-(3-Methylbenzylidene)hydrazinyl)-2-(naphthalen-2-yloxy)pyrimidin-4-yl)morpholine]", "EC50": "< 1000"},
      {"compound": "Cc1cccc(/C=N/Nc2cc(N3CCCOCC3)nc(OCCc3ccccn3)n2)c1", "note": "[Compound 35, (E)-4-(6-(2-(3-Methylbenzylidene)hydrazinyl)-2-(2-(pyridin-2-yl)ethoxy)pyrimidin-4-yl)-1,4-oxazepane]", "EC50": "1000 to 50000"},
      {"compound": "Cc1cc(/C=N/Nc2cc(N3CCOCC3)nc(OCCc3ccccn3)n2)ccn1", "note": "[Compound 19, (E)-4-(6-(2-((2-Methylpyridin-4-yl)methylene)hydrazinyl)-2-(2-(pyridin-2-yl)ethoxy)pyrimidin-4-yl)morpholine]", "EC50": "> 50000"},
      {"compound": "CCCN(CCC)c1cc(N/N=C/c2cccc(C)c2)nc(OCCc2ncccn2)n1", "note": "[Compound 24, (E)-6-(2-(3-Methylbenzylidene)hydrazinyl)-N,N-dipropyl-2-(2-(pyrimidin-2-yl)ethoxy)pyrimidin-4-amine]", "EC50": "> 50000"},
      {"compound": "Cc1cccc(/C=N/Nc2cc(N3CCOCC3)nc(OCCc3ccccn3)n2)c1", "note": "[Compound 11, (E)-4-(6-(2-(3-Methylbenzylidene)hydrazinyl)-2-(2-(pyridin-2-yl)ethoxy)pyrimidin-4-yl)morpholine]", "EC50": "< 1000"},
      {"compound": "C/C(=N\\Nc1cc(N2CCOCC2)nc(OCCc2ccccn2)n1)c1cccc(C)c1", "note": "[Compound 34, (E)-4-(2-(2-(Pyridin-2-yl)ethoxy)-6-(2-(1-m-tolylethylidene)hydrazinyl)pyrimidin-4-yl)morpholine]", "EC50": "< 1000"},
      {"compound": "Cc1cccc(/C=N/Nc2cc(N3CCOCC3)nc(OCCCc3ccccn3)n2)c1", "note": "[Compound 14, (E)-4-(6-(2-(3-Methylbenzylidene)hydrazinyl)-2-(3-(pyridin-2-yl)propoxy)pyrimidin-4-yl)morpholine]", "EC50": "< 1000"},
      {"compound": "Cc1cccc(/C=N/Nc2nc(OCCc3ccccn3)nc(N3CCOCC3)c2F)c1", "note": "[Compound 40, (E)-4-(5-Fluoro-6-(2-(3-methylbenzylidene)hydrazinyl)-2-(2-(pyridin-2-yl)ethoxy)pyrimidin-4-yl)morpholine]", "EC50": "> 50000"},
      {"compound": "Cc1cccc(/C=N/Nc2cc(N3CCOCC3)nc(OC(C)Cc3ccccn3)n2)c1", "note": "(stereo not shown) [Compound 28, (E)-4-(6-(2-(3-Methylbenzylidene)hydrazinyl)-2-(1-(pyridin-2-yl)propan-2-yloxy)pyrimidin-4-yl)morpholine]", "EC50": "< 1000"},
      {"compound": "Cc1cnc(COc2nc(N/N=C/c3cccc(C)c3)cc(N3CCOCC3)n2)nc1", "note": "[Compound 58, (E)-4-(6-(2-(3-Methylbenzylidene)hydrazinyl)-2-((5-methylpyrimidin-2-yl)methoxy)pyrimidin-4-yl)morpholine]", "EC50": "< 1000"},
      {"compound": "Cc1cccc(/C=N/Nc2cc(N3CCOCC3)nc(Oc3ccc4nccc(C)c4c3)n2)c1", "note": "[Compound 68, (E)-4-(6-(2-(3-Methylbenzylidene)hydrazinyl)-2-(4-methylquinolin-6-yloxy)pyrimidin-4-yl)morpholine]", "EC50": "< 1000"},
      {"compound": "Cc1cccc(/C=N/Nc2cc(N3CCOCC3)nc(OCc3nccc(C(F)(F)F)n3)n2)c1", "note": "[Compound 54, (E)-4-(6-(2-(3-Methylbenzylidene)hydrazinyl)-2-((4-(trifluoromethyl)pyrimidin-2-yl)methoxy)pyrimidin-4-yl)morpholine]", "EC50": "< 1000"},
      {"compound": "Cc1cccc(/C=N/Nc2cc(N3CCOCC3)nc(Oc3ccccc3)n2)c1", "note": "[Compound 51, (E)-4-(6-(2-(3-Methylbenzylidene)hydrazinyl)-2-phenoxypyrimidin-4-yl)morpholine]", "EC50": "< 1000"},
      {"compound": "Cc1cccc(/C=N/Nc2cc(N3CCOCC3)nc(OCc3ncccn3)n2)c1", "note": "[Compound 5, (E)-4-(6-(2-(3-Methylbenzylidene)hydrazinyl)-2-(pyrimidin-2-ylmethoxy)pyrimidin-4-yl)morpholine]", "EC50": "< 1000"},
      {"compound": "Cc1cccc(/C=N/Nc2cc(N3CCOCC3)nc(OCC(C)(C)c3ccccc3)n2)c1", "note": "[Compound 36, (E)-4-(2-(2-Methyl-2-phenylpropoxy)-6-(2-(3-methylbenzylidene)hydrazinyl)pyrimidin-4-yl)morpholine]", "EC50": "1000 to 50000"},
      {"compound": "Cc1cccc(/C=N/Nc2cc(N3CCOCC3)nc(OCc3nccc(C)n3)n2)c1", "note": "[Compound 50, (E)-4-(6-(2-(3-Methylbenzylidene)hydrazinyl)-2-((4-methylpyrimidin-2-yl)methoxy)pyrimidin-4-yl)morpholine]", "EC50": "< 1000"},
      {"compound": "Cc1cccc(/C=N/Nc2nc(OCCc3ccccn3)nc(N3CCOCC3)c2C#N)c1", "note": "[Compound 38, (E)-4-(2-(3-Methylbenzylidene)hydrazinyl)-6-morpholino-2-(2-(pyridin-2-yl)ethoxy)pyrimidine-5-carbonitrile]", "EC50": "> 50000"},
      {"compound": "CCC(Oc1nc(N/N=C/c2cccc(C)c2)cc(N2CCOCC2)n1)c1ncccn1", "note": "(stereo not shown) [Compound 65, (E)-4-(6-(2-(3-Methylbenzylidene)hydrazinyl)-2-(1-(pyrimidin-2-yl)propoxy)pyrimidin-4-yl)morpholine]", "EC50": "< 1000"},
      {"compound": "Cc1cccc(/C=N/Nc2cc(N3CCOCC3)nc(-c3cccc(-c4ccccn4)c3)n2)c1", "note": "[Compound 30, (E)-4-(6-(2-(3-Methylbenzylidene)hydrazinyl)-2-(3-(pyridin-2-yl)phenyl)pyrimidin-4-yl)morpholine]", "EC50": "1000 to 50000"},
      {"compound": "Cc1cccc(/C=N/Nc2cc(N3CCOCC3)nc(OCc3nc4ccccc4c(=O)[nH]3)n2)c1", "note": "[Compound 64, (E)-2-((4-(2-(3-Methylbenzylidene)hydrazinyl)-6-morpholinopyrimidin-2-yloxy)methyl)quinazolin-4(3H)-one]", "EC50": "< 1000"},
      {"compound": "Cc1cccc(/C=N/Nc2cc(N3CCOCC3)nc(OCCc3ccncn3)n2)c1", "note": "[Compound 29, (E)-4-(6-(2-(3-Methylbenzylidene)hydrazinyl)-2-(2-(pyrimidin-4-yl)ethoxy)pyrimidin-4-yl)morpholine]", "EC50": "1000 to 50000"},
      {"compound": "Cc1cccc(/C=N/Nc2cc(N3CCOCC3)nc(Oc3ccc4cccnc4c3)n2)c1", "note": "[Compound 15, (E)-4-(6-(2-(3-Methylbenzylidene)hydrazinyl)-2-(quinolin-7-yloxy)pyrimidin-4-yl)morpholine]", "EC50": "< 1000"},
      {"compound": "Cc1ccccc1/C=N/Nc1cc(N2CCOCC2)nc(OCCc2ccccn2)n1", "note": "[Compound 10, (E)-4-(6-(2-(2-Methylbenzylidene)hydrazinyl)-2-(2-(pyridin-2-yl)ethoxy)pyrimidin-4-yl)morpholine]", "EC50": "< 1000"},
      {"compound": "Cc1cccc(/C=N/Nc2cc(N3CCOCC3)nc(OCCc3ccccc3)n2)c1", "note": "[Compound 20, (E)-4-(6-(2-(3-Methylbenzylidene)hydrazinyl)-2-phenethoxypyrimidin-4-yl)morpholine]", "EC50": "1000 to 50000"},
      {"compound": "Cc1cccc(/C=N/Nc2cc(N3CCOCC3)nc(Oc3ccc4ncc(Cl)cc4c3)n2)c1", "note": "[Compound 66, (E)-4-(2-(3-Chloroquinolin-6-yloxy)-6-(2-(3-methylbenzylidene)hydrazinyl)pyrimidin-4-yl)morpholine]", "EC50": "< 1000"},
      {"compound": "Cc1cccc(/C=N/Nc2cc(N3CCOCC3)nc(Oc3ccc4nccc(Cl)c4c3)n2)c1", "note": "[Compound 63, (E)-4-(2-(4-Chloroquinolin-6-yloxy)-6-(2-(3-methylbenzylidene)hydrazinyl)pyrimidin-4-yl)morpholine]", "EC50": "< 1000"},
      {"compound": "COc1cnc(COc2nc(N/N=C/c3cccc(C)c3)cc(N3CCOCC3)n2)nc1", "note": "[Compound 60, (E)-4-(2-((5-Methoxypyrimidin-2-yl)methoxy)-6-(2-(3-methylbenzylidene)hydrazinyl)pyrimidin-4-yl)morpholine]", "EC50": "< 1000"}
    ]}
  ]
}
